# Data as given in patent US8722849B2, “Polypeptides” (Novo Nordisk A/S, priority 2011, dated 2014).
# Read-outs that look alike come from different tables or passages of the source. Starred links: 1 amine or outer side, 2 acyl side, 3 side chain; linkers in the order of their positions; H or OH if unused. Positions of bridges follow the written chain, without caps; N, C: chain ends. Residues, ends and D or L forms follow the SMILES beside them. *: point of attachment. C20 diacid = O=C(O)CCCCCCCCCCCCCCCCCCC(=O)*; γGlu = O=C(O)[C@H](CCC(=O)[*:2])N[*:1]
# Assays:
# [1] = biological target: T1, human amylin receptor (amylin 3(a) receptor: human calcitonin receptor + RAMP-3) (Homo sapiens, UniProt O60896+P30988); assay: Assay (II)a functional CRE-luciferase assay, human amylin receptor; assay type: cell-based; conditions: Table 2; BHK amylin 3(a)-receptor/CRE-luc cells
# T1 construct: expressed in transfected cells; host or cells: BHK570
# T1 sequence (P30988 25-474): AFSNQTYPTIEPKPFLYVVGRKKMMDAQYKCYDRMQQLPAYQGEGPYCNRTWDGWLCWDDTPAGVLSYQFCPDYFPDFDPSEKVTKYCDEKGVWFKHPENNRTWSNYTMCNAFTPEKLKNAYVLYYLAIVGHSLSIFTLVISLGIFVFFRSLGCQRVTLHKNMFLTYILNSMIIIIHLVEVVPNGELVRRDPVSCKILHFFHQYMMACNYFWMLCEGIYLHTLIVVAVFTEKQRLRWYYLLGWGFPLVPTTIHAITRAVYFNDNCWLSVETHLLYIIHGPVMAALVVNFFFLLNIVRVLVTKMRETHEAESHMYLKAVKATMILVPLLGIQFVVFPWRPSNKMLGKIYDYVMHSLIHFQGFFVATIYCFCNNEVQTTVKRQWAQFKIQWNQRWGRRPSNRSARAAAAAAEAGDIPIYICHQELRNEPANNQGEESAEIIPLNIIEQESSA
# T1 sequence (O60896 24-148 partner): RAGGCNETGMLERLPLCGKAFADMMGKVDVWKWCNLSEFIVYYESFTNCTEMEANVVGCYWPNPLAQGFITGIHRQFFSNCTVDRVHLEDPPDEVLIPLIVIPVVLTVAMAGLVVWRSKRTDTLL
# [2] = biological target: T2, human calcitonin receptor (Homo sapiens, UniProt P30988); assay: Assay (II)a functional CRE-luciferase assay, human calcitonin receptor; assay type: cell-based; conditions: Table 7; human calcitonin (CTa) receptor
# T2 construct: expressed in transfected cells; host or cells: BHK570
# T2 sequence (P30988 25-474): T1 sequence (P30988 25-474)
# [3] = Assay (IV) determination of solubility; assay type: physicochemical
# Procedure, shortened: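 Polypeptide in water (~500 nmol/ml) mixed 1:1 with 100 mM glycylglycine (pH 3.0–5.0) or bistrispropane (pH 6.0–8.0) buffers. Held 18 hours at room temperature, then centrifuged. Polypeptide remaining in solution quantified by HPLC.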
# [4] = biological target: T3, rat amylin 3(a) receptor (rat calcitonin(a) receptor + rat RAMP3) (Rattus norvegicus, UniProt P32214+Q9JJ73); assay: Assay (II)b functional cAMP FlashPlate assay, rat amylin receptor; assay type: cell-based; conditions: Table 11
# T3 construct: expressed in transfected cells; host or cells: BHK tk'ts 13
# T3 sequence (P32214 25-479 isoform P32214-2 limits assumed): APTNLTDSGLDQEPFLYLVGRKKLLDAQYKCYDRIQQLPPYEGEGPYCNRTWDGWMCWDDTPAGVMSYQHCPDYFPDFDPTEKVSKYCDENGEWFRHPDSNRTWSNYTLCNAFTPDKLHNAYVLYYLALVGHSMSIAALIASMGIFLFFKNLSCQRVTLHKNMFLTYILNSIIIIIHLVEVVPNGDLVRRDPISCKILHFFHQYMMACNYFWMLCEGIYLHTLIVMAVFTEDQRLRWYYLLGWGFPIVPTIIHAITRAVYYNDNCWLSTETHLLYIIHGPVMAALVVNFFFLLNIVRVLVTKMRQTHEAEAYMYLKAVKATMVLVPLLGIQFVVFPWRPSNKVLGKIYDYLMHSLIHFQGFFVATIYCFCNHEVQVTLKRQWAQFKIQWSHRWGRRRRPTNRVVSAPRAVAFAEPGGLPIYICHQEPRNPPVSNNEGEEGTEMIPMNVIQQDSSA
# T3 sequence (Q9JJ73 23-147 partner): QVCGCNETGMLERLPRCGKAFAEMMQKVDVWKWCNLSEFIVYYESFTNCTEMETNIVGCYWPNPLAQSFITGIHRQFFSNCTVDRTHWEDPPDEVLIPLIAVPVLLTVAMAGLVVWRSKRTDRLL
# Excerpt: (§1) Assay (II)b—Rat Calcitonin and Rat Amylin Receptor Assays
# (§2) Activation of calcitonin and amylin (coexpression of calcitonin receptor and receptor activity modifying proteins (RAMP)) receptors lead to increased intracellular concentrations of cAMP. In order to quantify the cAMP levels in transiently transfected cells the Adenylyl Cyclase Activation FlashPlate® Assay from […] was used. The basic principle of the FlashPlate® Assay is a competition between radioactive and non-radioactive cAMP generated by the cells for a fixed number of binding sites.
# (§3) Construction of rat calcitonin(a)—and rat amylin 3(a)-receptor cells.
# (§4) BHK tk'ts 13 cells were transiently transfected with either rat calcitonin (a) receptor or amylin 3 (a) receptor (rat calcitonin(a) receptor+ rat RAMP3) using FuGENE® 6 (ROCHE), according to the manufacturers recommendations.
# (§5) 24 hours after transient transfection the cells (rat calcitonin(a)—or rat amylin 3(a)—receptor cells) were added (100.000 cells/well) to the 96 well FlashPlates® with samples or standard in FlashPlate stimulation buffer with IBMX and incubated for 30 min. Detection mix was created according to manufacturers protocol and scintillation measured after 3 h of incubation on TopCounter™ (Packard).
# [5] = biological target: T4, rat calcitonin (a) receptor (Rattus norvegicus, UniProt P32214); assay: Assay (II)b functional cAMP FlashPlate assay, rat calcitonin receptor; assay type: cell-based; conditions: Table 11; read-out: CTa receptor rat EC50
# T4 construct: expressed in transfected cells; host or cells: BHK tk'ts 13
# T4 sequence (P32214 25-479 isoform P32214-2 limits assumed): T3 sequence (P32214 25-479 isoform P32214-2 limits assumed)
# Excerpt: as §1, §2, §3, §4, §5
# [6] = bistrispropane buffer, pH 6, pH 6.0, read-out: Solubility pH 6.0
# [7] = bistrispropane buffer, pH 6.5, pH 6.5, read-out: Solubility pH 6.5
# [8] = bistrispropane buffer, pH 7, pH 7.0, read-out: Solubility pH 7.0
# [9] = bistrispropane buffer, pH 7.5, pH 7.5, read-out: Solubility pH 7.5
# [10] = bistrispropane buffer, pH 8, pH 8.0, read-out: Solubility pH 8.0
# [11] = glycylglycine buffer, pH 3, pH 3.0, read-out: Solubility pH 3.0
# [12] = glycylglycine buffer, pH 4, pH 4.0, 18 hours at room temperature, Table 2, read-out: Solubility pH 4.0
# [13] = glycylglycine buffer, pH 4, pH 4.0, read-out: Solubility pH 4.0
# [14] = glycylglycine buffer, pH 5, pH 5.0, read-out: Solubility pH 5.0
EC50 [1] [nM],EC50 [2] [nM],"solubility at 18 h [3, 6] [µM]","solubility at 18 h [3, 7] [µM]","solubility at 18 h [3, 8] [µM]","solubility at 18 h [3, 9] [µM]","solubility at 18 h [3, 10] [µM]","solubility at 18 h [3, 11] [µM]","solubility at 18 h [3, 12] [µM]","solubility at 18 h [3, 13] [µM]","solubility at 18 h [3, 14] [µM]",EC50 [4] [nM],EC50 [5] [nM],"solubility at 18 h ([3]; bistrispropane buffer, pH 7, pH 7.0, 18 hours at room temperature, Table 3, read-out: Solubility pH 7.0) [µM]","solubility at 18 h ([3]; bistrispropane buffer, pH 7, pH 7.0, Table 8, read-out: Solubility pH 7.0) [µM]",Compound
0.105,0.31,175,35,6,61,158,> 200,> 200,> 200,155,0.132,0.824,–,–,"CC(C)C[C@H](NC(=O)[C@H](CCCNC(=N)N)NC(=O)[C@H](CCC(N)=O)NC(=O)[C@@H](NC(=O)[C@H](C)NC(=O)[C@@H]1CSSC[C@H](NC(=O)[C@H](Cc2c[nH]cn2)NC(=O)[C@H](Cc2c[nH]cn2)NC(=O)[C@H](Cc2c[nH]cn2)NC(=O)CC[C@H](NC(=O)CCCCCCCCCCCCCCCCCCC(=O)O)C(=O)O)C(=O)N[C@@H](CC(N)=O)C(=O)N[C@@H]([C@@H](C)O)C(=O)N[C@@H](C)C(=O)N[C@@H]([C@@H](C)O)C(=O)N1)[C@@H](C)O)C(=O)N[C@@H](C)C(=O)N[C@@H](CCC(=O)O)C(=O)N[C@@H](Cc1ccccc1)C(=O)N[C@@H](CC(C)C)C(=O)N[C@@H](Cc1c[nH]cn1)C(=O)N[C@@H](Cc1c[nH]cn1)C(=O)N[C@@H](CO)C(=O)N[C@@H](CO)C(=O)N[C@@H](CC(N)=O)C(=O)N[C@@H](CC(N)=O)C(=O)N[C@@H](Cc1ccccc1)C(=O)NCC(=O)N[C@@H](C)C(=O)N1CCC[C@H]1C(=O)N[C@@H](CC(C)C)C(=O)N[C@@H](CO)C(=O)N[C@@H](CO)C(=O)N[C@H](C(=O)N[C@@H](CC(N)=O)C(=O)N[C@H](C(=O)NCC(=O)N[C@@H](CO)C(=O)N[C@@H](CC(N)=O)C(=O)N[C@H](C(=O)N[C@@H](Cc1ccc(O)cc1)C(N)=O)[C@@H](C)O)C(C)C)[C@@H](C)O [Example 19, N-alpha-[(S)-4-Carboxy-4-(19-carboxynonadecanoylamino)butyryl]-His-His-[His1,Glu14,His17,Ala25,Pro26,Ser28,Ser29]-pramlintide] ({C20 diacid-γGlu}-HHHCNTATCATQRLAEFLHHSSNNFGAPLSSTNVGSNTY-NH2; disulfide 4-9 (inferred); C-terminus assumed)"
0.0925,0.067,> 200,> 200,> 200,> 200,> 200,> 200,> 200,> 200,> 200,0.121,0.109,> 200,> 200,"CC[C@H](C)[C@H](NC(=O)[C@@H]1CCCN1C(=O)CNC(=O)[C@H](Cc1ccccc1)NC(=O)[C@H](CC(N)=O)NC(=O)[C@H](CC(N)=O)NC(=O)[C@H](CO)NC(=O)[C@H](CO)NC(=O)[C@H](Cc1c[nH]cn1)NC(=O)[C@H](Cc1cnc[nH]1)NC(=O)[C@H](CC(C)C)NC(=O)[C@H](Cc1ccccc1)NC(=O)[C@H](CCC(=O)O)NC(=O)[C@H](C)NC(=O)[C@H](CC(C)C)NC(=O)[C@H](CCCNC(=N)N)NC(=O)[C@H](CCC(N)=O)NC(=O)[C@@H](NC(=O)[C@H](C)NC(=O)[C@@H]1CSSC[C@H](NC(=O)[C@H](Cc2cnc[nH]2)NC(=O)CC[C@H](NC(=O)CCCCCCCCCCCCCCCCCCC(=O)O)C(=O)O)C(=O)N[C@@H](CC(N)=O)C(=O)N[C@@H]([C@@H](C)O)C(=O)N[C@@H](C)C(=O)N[C@@H]([C@@H](C)O)C(=O)N1)[C@@H](C)O)C(=O)N[C@@H](CC(C)C)C(=O)N1CCC[C@H]1C(=O)N1CCC[C@H]1C(=O)N[C@H](C(=O)N[C@@H](CC(N)=O)C(=O)N[C@H](C(=O)NCC(=O)N[C@@H](CO)C(=O)N[C@@H](CC(N)=O)C(=O)N[C@H](C(=O)N1CCC[C@H]1C(N)=O)[C@@H](C)O)C(C)C)[C@@H](C)O [Example 84, N-alpha-[(S)-4-Carboxy-4-(19-carboxynonadecanoylamino)butyryl]-[His1,Glu14,His17,Pro37]-pramlintide] ({C20 diacid-γGlu}-HCNTATCATQRLAEFLHHSSNNFGPILPPTNVGSNTP-NH2; disulfide 2-7)"
